Consider one molecule from patent EP0499337A1, “Use of tetra:hydro-thieno-pyrido-indole derivatives for the treatment of skin disorders” (YAMANOUCHI EUROPE B.V., priority 1991, dated 1992).

One data set has as its system 50 kDa protein. Nature of the data set: Phosphorylation of synaptosomal plasma membranes: CaM-dependent phosphorylation of the 50 kDa protein. Type of data set: biochemical. The note with it: in the presence of exogenous CaM (3 units/assay); read-out: IC₅₀-value, CaM-dependent phosphorylation of the 50 kDa protein. As to the method:
Subcellular fractionation and phosphorylation assay were performed according to Kristjansson et al., (1982). […] After a preincubation at 30°C for 5 min, the phosphorylation reaction was started by adding the ATP. The reaction was stopped after 15 sec. All compounds to be tested were present at the start of the preincubation. […] Phosphorylation of B-50 and the 50 kDa protein, which was only phosphorylated after addition of CaM, was measured in the presence of exogenous CaM (3 units/assay) and quantified.

The target in another data set is calmodulin (Homo sapiens, UniProt P0DP23). The conditions noted are these: Schmidt et al. (1990); cited from earlier work.
The subject of data set [1] is Normal human keratinocytes. The data set is described as follows: Cornified envelope formation (keratinocyte differentiation). It counts as cell-based. The conditions noted are these: 4 h plus 48 h exposure, increasing concentrations. Here is the method:
Normal human keratinocytes were grown to confluence at low calcium concentration in the presence of 5% FCS, 1 µM isoproterenol and 10 ng EGF per ml. They were first exposed for 4 h to increasing concentrations of test compounds and subsequently reincubated for 48 h in medium containing normal calcium concentration and the same additives, test compounds and [³H]-leucine (1 µCi/ml). Thereafter, both spontaneous and ionophore-induced cornified envelope (CE) formation was determined [King et al. (1986) Exp. Cell. Res., 167: 252].

The subject of data set [2] is HaCaT cells. Nature of the data set: Keratinocyte morphology, phase contrast microscopy. Type of data set: cell-based, human. The note with it: 10 µM, monitored during 72 hours. As to the method:
HaCaT cells were cultured under standard conditions. 24 h after plating (2.5 x 10⁶ cells) the medium was replaced by medium containing the test compounds. During 72 hours cell morphology was frequently monitored using a phase contrast photomicroscope (Olympus IMT-2, Tokyo, Japan).

The test system of another data set is PMHL. Nature of the data set: Nonspecific cytotoxicity, trypane blue exclusion test. It counts as cell-based, human. Here is the method: Nonspecific cytotoxicity of the test compounds on PMHL was assessed by […] blue exclusion test.
Another data set has as its system NHEK. The data set is described as follows: Keratinocyte proliferation, neutral red assay (number of viable attached cells). Type of data set: cell-based. The note with it: Homo sapiens, Ca²⁺ concentration low (0.06 mM), read-out: keratinocyte proliferation IC₅₀ values. Here is the method:
(§1) On day 0, 5,000 cells in 100 µl were plated per well in a 96-well cluster plate (Greiner), either in the medium as stated above, or in MCDB153 medium (Clonetics) under low calcium conditions. On day 1 100 µl medium containing increasing concentrations of test agents were added to each well. On day 4, 50 µl of 0.05% neutral red (Gurr) solution in 0.9% NaCl was added per well and the cells were reincubated for 3 h at 37°C. After washing with PBS, the cells were lyzed by addition of 100 µl of 50% ethanol in 0.05 M NaH₂PO₄ per well. After vigorous shaking, the optical extinction was measured at 550 nm. […] Meth., 9: 7). All determinations were performed in octuple. IC₅₀-values (the concentration inhibiting cell numbers by 50%) were determined (µM).

A further data set deals with SVK₁₄. The data set is described as above. It counts as cell-based. The note with it: Homo sapiens. As to the method:
as §1

The test system of data set [3] is HaCaT cells. Nature of the data set: Proliferation of HaCaT cells (incorporation of [3H]-thymidine and [14C]-amino acids, total protein content of attached cells). It counts as cell-based. The note with it: Homo sapiens, all parameters measured ([3H]-thymidine, [14C]-amino acids, total protein content), 48 h incubation with compound, read-out: IC₅₀ values, inhibition of proliferation. From the text: HaCaT cells are spontaneously immortalized aneuploid human keratinocytes prepared according to J. Cell. Biol. (1988), 106: 761-771. They can be substituted, however, by SVK₁₄ cells [Taylor-Papadimitriou et al. (1982), J. Cell Differentiat. 11: 169-180] or freshly isolated human keratinocytes [Rheinwald and Green (1975), Cell 6: 331-344].
The HaCaT cells (or the other cells) were routinely grown in Dulbecco's modified essential medium (DMEM) supplemented with 1% antibiotic-antimycotic solution, 4 mM L-glutamine and 10% fetal calf serum in culture flasks (T 175; Falcon Labware, Oxuard, CA, USA). Proliferation tests were carried out with passages 90-95 (for HaCaT-cells) and passages 3-6 (for NHEK's) in 24 well plates (Greiner, Solingen, FRG) as described below. All incubations were performed at 37°C in a humidified atmosphere with 10% CO₂. […]
Proliferation of HaCaT cells was assayed by three different parameters: incorporation of [³H]-thymidine, incorporation of [¹⁴C]-amino acids and the increase of protein content of attached cells. […] Thereafter, the filters were treated with 0.5 ml PROTOSOL®-solution (NEN, Bad Homburg, FRG) at 60°C for 1 h and radioactivity was assessed by liquid scintillation counting. […]
For determination of total protein content, cells were washed twice with methanol. […] Concentration of protein was determined spectrophotometrically using bovine serum albumin as a standard. […]

The subject of data set [4] is TPA-induced ear edema in mice. Nature of the data set: Intraperitoneal administration, TPA-induced ear edema in mice. The note with it: intraperitoneally, 30 mg/kg, 3 h after challenge. It counts as in vivo. Here is the method: Mice were injected intraperitoneally with 30, 10 or 3.3 mg/kg body weight of the test substances, sphingosine in carboxymethylcellulose (0.5%) and tiflucarbine in physiologic Saline, 10 ml/kg body weight. After 60 minutes the mire were challenged on the left ear with a 0.01 wt% solution of 12-O-tetradecanoylphorbol-13-acetate (TPA) in a 80/20 mixture of acetone/water. At 0, 3, 6 and 24 h after challenge, ear thickness was determined.

Where two headings read alike, the source gives them in different places.

For the molecule `CCN1CCc2[nH]c3cc(F)c4scc(C)c4c3c2C1` [Tiflucarbine, 1-methyl-9-ethyl-4-fluoro-7,8,9,10-tetra:hydro-thieno-[3,2-e]-pyrido-[4,3-b]-indole lactate], the IC50 with 50 kDa protein was under 1 µM; in the data set with NHEK, 10 µM; in the data set with SVK₁₄ (SVK₁₄, Ca²⁺ concentration normal (1.6 mM), read-out: keratinocyte proliferation IC₅₀ values), 12.5 µM; in the data set on SVK₁₄ (read-out: keratinocyte proliferation IC₅₀ values, SVK₁₄, Ca²⁺ concentration low (0.06 mM)) it was 7.5 µM; with HaCaT cells [3], 10 to 17 µM. Moreover, on calmodulin, the binding to calmodulin entry is “bind to calmodulin”. The “spontaneous CE formation” value in [1] was “no effect”. For the same molecule, the effect on morphology entry in the data set with HaCaT cells [2] is listed as “no effect”. The same molecule had a Trypane blue in the data set with PMHL of 300 µM. Moreover, the “ear edema (ear thickness)” value in [4] is on record as “reduced ear edema”.
